Source: patent US20220389437A1, “METHODS OF IN PLANTA TRAN[…] AXILLARY MERISTEM” (SYNGENTA CROP PROTECTION AG, priority 2019, published 2022)

Test system: non-transgenic plants (soybean seedlings), wounded axillary areas
Experiment: Glyphosate top selection dose finding: suppression of axillary meristem regeneration
Format: in vivo
Settings: 10, 25, 50, 75, 100 or 200 uM applied on the wounded axillary areas, non-lethal but sufficient to suppress regeneration within 2 weeks
From the text: 1) Germination: Soybean seeds were sown in 2.5 inch pots, two seeds in each pot. 4-7 day old seedlings grown from the seeds were used for cotyledon axillary meristem transformation.
2) Wound axillary meristems: The axillary meristems located in the axil of cotyledons were completely removed. The stem cells located in the base of the axillary meristem were transformed using Agrobacterium as described below. To break the dormancy of the axillary meristem, the primary shoot meristem was removed at the same time, or 3-7 days' later.
5) Selection: To determine the glyphosate concentrations effectively suppressing axillary meristem regeneration in top selection, non-transgenic plants were used and 10 uM to 200 uM glyphosate (specifically 10, 25, 50, 75, 100, or 200 uM glyphosate) was applied on the wounded axillary areas.

O=C(O)CNCP(=O)(O)O [glyphosate]
glyphosate concentrations effectively suppressing axillary meristem regeneration in top selection: 75 to 200 µM
